In series [1] the target is Serine/threonine-protein kinase SIK3 (Homo sapiens) (UniProt Q9Y2K2). As to the kind of experiment: Inhibition of wild type partial length human QSK (90 to 395 residues) expressed in mammalian expression system at 1 uM by KINOMEscan analysis.
Series [2] concerns MV4-11. Kind of series: Induction of cell cycle arrest in human MV4-11 cells assessed as accumulation of cells at G2/M phase at 0.4 uM incubated fo 36 hrs by propidium iodide staining based flow cytometry (reference value: 9.5%). The format is functional. A general note: In flow cytometry, cells or beads pass a laser one at a time.
The next series has as its system THP-1. Kind of series: Antiproliferative activity against human THP-1 cells assessed as reduction in cell viability measured after 72 hrs. The format is functional, cell-based. The note with it: THP-1, 72 h.
For series [3], the system named is MV4-11. Kind of series: Induction of cell cycle arrest in human MV4-11 cells assessed as accumulation of cells at G2/M phase at 0.8 uM incubated fo 36 hrs by propidium iodide staining based flow cytometry (reference value: 9.5%). It counts as functional.
Series [4] addresses MAP kinase-interacting serine/threonine-protein kinase 2 (Homo sapiens) (UniProt Q9HBH9). Kind of series: Inhibition of wild type partial length human MKNK2 (63 to 388 residues) expressed in mammalian expression system at 1 uM by KINOMEscan analysis.
Series [5] concerns MV4-11. Kind of series: Induction of apoptosis in human MV4-11 cells assessed as necrotic cells at 4 uM incubated for 24 hrs by AnnexinV-FITC/PI staining based flow cytometry (reference value: 0%). It counts as functional.
In the next series the target is CDK9/cyclin T1 (Homo sapiens, UniProt P50750). As to the kind of experiment: Inhibition of CDK9/CyclinT1 (unknown origin) by ADP-Glo assay. The format is protein-complex assay. (In general: ADP-Glo turns the ADP formed in a reaction into a luminescent signal.)
For series [6], the system named is MV4-11. Kind of series: Induction of cell cycle arrest in human MV4-11 cells assessed as accumulation of cells at S phase at 0.8 uM incubated fo 36 hrs by propidium iodide staining based flow cytometry (reference value: 26.5%). The format is functional.
For series [7], the system named is MV4-11. As to the kind of experiment: Induction of apoptosis in human MV4-11 cells assessed as viable cells at 1 uM incubated for 24 hrs by AnnexinV-FITC/PI staining based flow cytometry (reference value: 93.4%). It counts as functional. The following applies: read-out: Activity.
Series [8] can be described thus: Metabolic stability of the compound in mouse liver microsomes at 10 uM measured for 60 mins in presence of NADPH by LC-MS/MS analysis. It counts as ADME, Microsome. The note with it: 1 h. (Liver microsomes are vesicles of endoplasmic reticulum, rich in cytochrome P450 enzymes.)

Chain of Serine/threonine-protein kinase SIK3 (Homo sapiens) (Q9Y2K2 whole entry, looked up, the tested form may be a part): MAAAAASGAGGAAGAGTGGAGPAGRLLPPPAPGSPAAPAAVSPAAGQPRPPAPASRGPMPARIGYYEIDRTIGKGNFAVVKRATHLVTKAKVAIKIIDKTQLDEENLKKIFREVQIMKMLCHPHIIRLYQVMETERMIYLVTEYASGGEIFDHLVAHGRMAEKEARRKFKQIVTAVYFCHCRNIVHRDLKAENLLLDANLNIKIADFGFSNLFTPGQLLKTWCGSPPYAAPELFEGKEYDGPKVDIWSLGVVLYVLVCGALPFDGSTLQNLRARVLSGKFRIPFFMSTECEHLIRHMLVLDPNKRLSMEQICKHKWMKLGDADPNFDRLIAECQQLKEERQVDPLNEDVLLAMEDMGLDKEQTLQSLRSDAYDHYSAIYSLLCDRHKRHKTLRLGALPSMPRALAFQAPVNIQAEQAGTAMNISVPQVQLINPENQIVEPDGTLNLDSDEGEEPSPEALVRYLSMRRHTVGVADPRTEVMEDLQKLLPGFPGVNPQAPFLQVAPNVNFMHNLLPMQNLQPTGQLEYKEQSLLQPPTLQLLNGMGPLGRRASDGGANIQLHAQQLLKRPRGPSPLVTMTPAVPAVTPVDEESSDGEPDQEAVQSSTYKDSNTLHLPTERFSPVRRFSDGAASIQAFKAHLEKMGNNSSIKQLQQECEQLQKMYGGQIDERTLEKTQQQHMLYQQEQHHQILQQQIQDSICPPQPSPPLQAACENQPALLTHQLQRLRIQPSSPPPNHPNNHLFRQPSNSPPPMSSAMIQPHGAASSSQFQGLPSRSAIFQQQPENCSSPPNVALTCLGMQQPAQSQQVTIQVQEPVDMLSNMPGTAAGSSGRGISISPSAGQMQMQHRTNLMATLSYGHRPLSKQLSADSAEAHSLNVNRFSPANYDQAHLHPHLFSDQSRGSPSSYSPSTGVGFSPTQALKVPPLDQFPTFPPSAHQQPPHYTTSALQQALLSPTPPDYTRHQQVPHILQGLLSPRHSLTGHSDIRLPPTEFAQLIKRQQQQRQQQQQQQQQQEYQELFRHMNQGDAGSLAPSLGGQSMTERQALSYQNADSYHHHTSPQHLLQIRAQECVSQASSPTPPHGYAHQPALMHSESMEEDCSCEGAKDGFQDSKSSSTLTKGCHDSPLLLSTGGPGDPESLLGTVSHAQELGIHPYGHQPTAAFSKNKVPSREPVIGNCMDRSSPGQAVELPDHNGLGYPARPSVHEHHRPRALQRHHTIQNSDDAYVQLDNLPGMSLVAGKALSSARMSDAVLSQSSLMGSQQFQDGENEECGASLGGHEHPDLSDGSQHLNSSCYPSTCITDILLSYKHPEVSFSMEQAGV
Chain of CDK9/cyclin T1 (O60563 whole entry): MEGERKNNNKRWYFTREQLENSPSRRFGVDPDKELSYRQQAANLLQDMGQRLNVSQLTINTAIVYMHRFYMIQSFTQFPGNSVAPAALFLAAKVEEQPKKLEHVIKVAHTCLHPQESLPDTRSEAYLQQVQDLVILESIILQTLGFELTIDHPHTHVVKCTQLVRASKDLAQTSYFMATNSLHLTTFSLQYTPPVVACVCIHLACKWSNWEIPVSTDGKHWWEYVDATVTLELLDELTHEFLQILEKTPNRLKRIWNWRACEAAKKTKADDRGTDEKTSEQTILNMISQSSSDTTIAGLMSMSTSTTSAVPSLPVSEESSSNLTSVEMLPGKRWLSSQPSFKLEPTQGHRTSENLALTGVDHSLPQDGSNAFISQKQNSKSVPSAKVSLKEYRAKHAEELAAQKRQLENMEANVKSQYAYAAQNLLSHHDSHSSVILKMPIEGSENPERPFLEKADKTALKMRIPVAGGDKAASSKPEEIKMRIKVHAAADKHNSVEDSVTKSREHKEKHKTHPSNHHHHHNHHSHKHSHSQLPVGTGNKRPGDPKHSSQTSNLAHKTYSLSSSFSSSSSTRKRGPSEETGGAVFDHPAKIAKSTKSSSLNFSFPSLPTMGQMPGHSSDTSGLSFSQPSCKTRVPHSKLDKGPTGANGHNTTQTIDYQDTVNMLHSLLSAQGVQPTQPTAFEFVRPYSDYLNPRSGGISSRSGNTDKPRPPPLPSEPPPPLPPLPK
Chain of CDK9/cyclin T1 (P50750 whole entry): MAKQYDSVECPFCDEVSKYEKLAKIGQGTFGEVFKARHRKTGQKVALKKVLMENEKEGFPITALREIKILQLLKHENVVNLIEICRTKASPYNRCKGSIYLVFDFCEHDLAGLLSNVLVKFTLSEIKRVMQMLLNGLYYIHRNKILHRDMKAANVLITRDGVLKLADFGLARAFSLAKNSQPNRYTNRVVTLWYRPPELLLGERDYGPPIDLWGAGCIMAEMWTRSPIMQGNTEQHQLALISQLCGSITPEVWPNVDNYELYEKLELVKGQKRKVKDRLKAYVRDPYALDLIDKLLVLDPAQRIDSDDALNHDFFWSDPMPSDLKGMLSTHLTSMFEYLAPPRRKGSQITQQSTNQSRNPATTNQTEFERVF
Chain of MAP kinase-interacting serine/threonine-protein kinase 2 (Homo sapiens) (Q9HBH9 whole entry, looked up, the tested form may be a part): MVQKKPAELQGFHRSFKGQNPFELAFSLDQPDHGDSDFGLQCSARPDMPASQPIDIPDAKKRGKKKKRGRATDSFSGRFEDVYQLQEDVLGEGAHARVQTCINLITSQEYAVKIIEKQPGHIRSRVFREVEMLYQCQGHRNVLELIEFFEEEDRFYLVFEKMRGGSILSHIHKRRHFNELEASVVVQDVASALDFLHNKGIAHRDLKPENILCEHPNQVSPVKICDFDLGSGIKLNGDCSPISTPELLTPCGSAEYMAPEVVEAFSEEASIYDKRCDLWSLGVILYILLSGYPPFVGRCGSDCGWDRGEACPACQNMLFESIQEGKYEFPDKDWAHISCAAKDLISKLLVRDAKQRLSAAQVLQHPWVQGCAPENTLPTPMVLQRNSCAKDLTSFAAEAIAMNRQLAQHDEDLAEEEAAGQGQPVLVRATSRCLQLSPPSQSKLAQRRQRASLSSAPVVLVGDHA

As usually defined, the inhibition is the percentage by which the read-out fell short of the control. Lower therefore signals little suppression. One may read the IC50 as the concentration at which inhibition is half-maximal. In the case of `COc1cc(O)c2c(=O)cc(-c3ccc(N4CCN(C)CC4)cc3)oc2c1C1=CCN(C)CC1`, the inhibition was found to be 3.3% in [1] and 1.6% in series [4]. Moreover, the Activity in the series on MV4-11 [2] was determined as 6%; in the series with MV4-11 [3], 5%; with MV4-11 [5], 0.42%; with MV4-11 [6], 10.8%. The values for the IC50 with THP-1 and against CDK9/cyclin T1 were 450 nM and 6.7 nM, respectively. Further, in the series on MV4-11 [7], the viability at 1 µM worked out at 69.1%. Further, the Stability result in series [8] was “Stable”.

(Values after ChEMBL document CHEMBL5634084, “Design and optimization of selective and potent CDK9 inhibitors with flavonoid scaffold for the treatment of acute myeloid leukemia” (Eur J Med Chem, 2023).)
